This passage reports IC50 results from patent US9815846B2 (Merck Sharp & Dohme Corp., priority 2014, dated 2017).

Usually IC50 stands for the point on the concentration scale where inhibition reaches its midpoint. Lower therefore signals inhibition by little substance.

In the test the target is human TrkA receptor (Homo sapiens (Human), UniProt P04629). The experiment in a line: DiscoverX PathHunter TrkA functional assay (NGF-stimulated U2OS cells). It counts as cell-based. As to conditions: U2OS cells expressing human TrkA-PK, Shc1-EA and p75NTR; compound 1 h, then NGF at ~80% of maximal response for 3 h; luminescence.
human TrkA receptor, sequence (P04629 33-796): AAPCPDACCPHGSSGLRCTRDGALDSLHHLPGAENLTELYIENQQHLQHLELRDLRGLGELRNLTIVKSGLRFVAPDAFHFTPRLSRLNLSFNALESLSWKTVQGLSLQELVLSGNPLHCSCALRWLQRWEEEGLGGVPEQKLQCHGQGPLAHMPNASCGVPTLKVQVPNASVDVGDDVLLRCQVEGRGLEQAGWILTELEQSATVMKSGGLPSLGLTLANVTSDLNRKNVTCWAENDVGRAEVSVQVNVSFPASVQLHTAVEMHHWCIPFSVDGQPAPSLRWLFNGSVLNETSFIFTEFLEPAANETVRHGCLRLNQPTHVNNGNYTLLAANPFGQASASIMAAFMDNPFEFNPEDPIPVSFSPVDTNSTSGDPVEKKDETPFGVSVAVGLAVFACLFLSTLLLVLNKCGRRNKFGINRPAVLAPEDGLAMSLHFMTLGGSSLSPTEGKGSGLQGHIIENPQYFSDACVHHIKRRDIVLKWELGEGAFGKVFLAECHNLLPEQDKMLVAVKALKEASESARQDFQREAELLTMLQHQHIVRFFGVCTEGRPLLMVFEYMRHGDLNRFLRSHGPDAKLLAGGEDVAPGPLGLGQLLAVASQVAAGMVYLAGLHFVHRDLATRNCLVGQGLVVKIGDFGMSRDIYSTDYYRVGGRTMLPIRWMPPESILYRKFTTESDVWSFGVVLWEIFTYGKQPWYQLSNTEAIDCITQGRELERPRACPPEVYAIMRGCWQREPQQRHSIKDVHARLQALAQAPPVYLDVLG
As for `CC(=O)NCc1ncc(NC(=O)c2ccc(C(F)(F)F)c(-c3ccn(C)n3)c2)c(-c2ccccc2)n1` [Example 49, N-(2-(acetamidomethyl)-4-phenylpyrimidin-5-yl)-3-(1-methyl-1H-pyrazol-3-yl)-4-(trifluoromethyl)benzamide], the IC50 worked out at 3.6 nM.

Regarding `Cn1ccc(-c2cc(C(=O)Nc3cnc(CN)nc3-c3ccccc3)ccc2C(F)(F)F)n1` [Example 42, N-(2-(Aminomethyl)-4-phenylpyrimidin-5-yl)-3-(1-methyl-1H-pyrazol-3-yl)-4-(trifluoromethyl)benzamide], the IC50 was 21 nM.

`Cc1ncc(NC(=O)c2ccc(C(F)(F)F)c(-c3cc[nH]n3)c2)c(-c2ccccc2)n1` [Example 21, N-(2-methyl-4-phenylpyrimidin-5-yl)-3-(1H-pyrazol-3-yl)-4-(trifluoromethyl)benzamide] displayed a concentration for half-maximal inhibition (IC50) of 35 nM.

The molecule `O=C(Nc1cnc(C(=O)N2CCOCC2)nc1-c1ccccc1)c1ccc(C(F)(F)F)c(-c2cc[nH]n2)c1` [Example 88, N-(2-(morpholine-4-carbonyl)-4-phenylpyrimidin-5-yl)-3-(1H-pyrazol-3-yl)-4-(trifluoromethyl)benzamide] registered an IC50 of 1200 nM.

Take `CNC(=O)c1ccc(-c2cnc(-c3ccccc3)c(NC(=O)c3cc(-c4ncccn4)c(C(F)(F)F)cc3F)c2)nc1` [Example 174, 5′-(2-fluoro-5-(pyrimidin-2-yl)-4-(trifluoromethyl)benzamido)-N-methyl-6′-phenyl-[2,3′-bipyridine]-5-carboxamide]: the IC50 was 4.8 nM.

`Cn1ccc(-c2cc(C(=O)Nc3cnc(N4CCNC4=O)nc3-c3ccccc3)c(F)cc2C(F)(F)F)n1` [Example 211, 2-fluoro-5-(1-methyl-1H-pyrazol-3-yl)-N-(2-(2-oxoimidazolidin-1-yl)-4-phenylpyrimidin-5-yl)-4-(trifluoromethyl)benzamide] registered an IC50 of 2.6 nM.

`Cn1ccc(-c2cc(C(=O)Nc3cnc(Cn4cccnc4=O)nc3-c3ccccc3)c(F)cc2C(F)(F)F)n1` [Example 225, 2-fluoro-5-(1-methyl-1H-pyrazol-3-yl)-N-(2-((2-oxopyrimidin-1(2H)-yl)methyl)-4-phenylpyrimidin-5-yl)-4-(trifluoromethyl)benzamide] registered an IC50 of 1.2 nM.

Consider `CC(=O)N1CCc2nc(-c3ccccc3)c(NC(=O)c3cc(-c4ccn(C)n4)c(C(F)(F)F)cc3Cl)cc2C1` [Example 151, N-(6-acetyl-2-phenyl-5,6,7,8-tetrahydro-1,6-naphthyridin-3-yl)-2-chloro-5-(1-methyl-1H-pyrazol-3-yl)-4-(trifluoromethyl)benzamide], for which inhibition was half-maximal at 0.54 nM (IC50).

Molecule `Cn1ccc(-c2cc(C(=O)Nc3cnc(CNC(=O)C4CC4)nc3-c3ccccc3)ccc2C(F)(F)F)n1` [Example 51, N-(2-(cyclopropanecarboxamidomethyl)-4-phenylpyrimidin-5-yl)-3-(1-methyl-1H-pyrazol-3-yl)-4-(trifluoromethyl)benzamide] displayed an IC50 of 4.9 nM.

On to `Cn1ccc(-c2cc(C(=O)Nc3cc(-c4ccc(C(N)=O)cn4)cnc3-c3ccccc3)c(F)cc2C(F)(F)F)n1` [Example 164, 5′-(2-Fluoro-5-(1-methyl-1H-pyrazol-3-yl)-4-(trifluoromethyl)benzamido)-6′-phenyl-[2,3′-bipyridine]-5-carboxamide], for which half-maximal inhibition (IC50) was put at 0.51 nM. This IC50 lies about 9.6-fold lower than the previous one.

`Cn1ccc(-c2cc(C(=O)Nc3ccc(CNC(=O)CO)nc3-c3ccccc3)ccc2C(F)(F)F)n1` [Example 53, N-(6-((2-hydroxyacetamido)methyl)-2-phenylpyridin-3-yl)-3-(1-methyl-1H-pyrazol-3-yl)-4-(trifluoromethyl)benzamide] returned an IC50 of 5.7 nM. This IC50 lies about 11-fold higher than the previous one.

Molecule `CCN(C)C(=O)Cc1ncc(NC(=O)c2cc(-c3ccn(C)n3)c(C(F)(F)F)cc2F)c(-c2ccccc2)n1` [Example 115, N-(2-(2-(ethyl(methyl)amino)-2-oxoethyl)-4-phenylpyrimidin-5-yl)-2-fluoro-5-(1-methyl-1H-pyrazol-3-yl)-4-(trifluoromethyl)benzamide] had an IC50 of 2.6 nM. Compared with the last molecule, the IC50 is about 2.2-fold lower.

In turn, `Cn1ccc(-c2cc(C(=O)Nc3cnc(CN4CCN(S(C)(=O)=O)CC4)nc3-c3ccccc3)c(F)cc2C(F)(F)F)n1` [Example 182, 2-Fluoro-5-(1-methyl-1H-pyrazol-3-yl)-N-(2-((4-(methylsulfonyl)piperazin-1-yl)methyl)-4-phenylpyrimidin-5-yl)-4-(trifluoromethyl)benzamide] came in with an IC50 of 5.1 nM.

In turn, `Cc1cc(-c2ccccc2)c(NC(=O)c2ccc(C(F)(F)F)c(-c3cc[nH]n3)c2)cn1` [Example 5, N-(6-Methyl-4-phenylpyridin-3-yl)-3-(1H-pyrazol-5-yl)-4-(trifluoromethyl)benzamide] registered an IC50 of 14 nM.

`Cn1ccc(-c2cc(C(=O)Nc3cnc(CNC(=O)CO)nc3-c3ccccc3)ccc2C(F)(F)F)n1` [Example 50, N-(2-((2-hydroxyacetamido)methyl)-4-phenylpyrimidin-5-yl)-3-(1-methyl-1H-pyrazol-3-yl)-4-(trifluoromethyl)benzamide] yielded an IC50 of 3.6 nM.

`Cn1ccc(-c2cc(C(=O)Nc3cc(C4CCC(=O)N4)cnc3-c3ccccc3)c(F)cc2C(F)(F)F)n1` (single isomer, unassigned) [Example 181, (R or S)-2-Fluoro-5-(1-methyl-1H-pyrazol-3-yl)-N-(5-(5-oxopyrrolidin-2-yl)-2-phenylpyridin-3-yl)-4-(trifluoromethyl)benzamide] had an IC50 of 3.5 nM. The IC50 values of the last two molecules are within 1.5-fold of each other.

Turning to `Cn1ccc(-c2cc(C(=O)Nc3cnc(CN4C[C@@H](O)[C@@H](O)C4)nc3-c3ccccc3)c(F)cc2C(F)(F)F)n1` [Example 184, N-(2-(((3S,4R)-3,4-dihydroxypyrrolidin-1-yl)methyl)-4-phenylpyrimidin-5-yl)-2-fluoro-5-(1-methyl-1H-pyrazol-3-yl)-4-(trifluoromethyl)benzamide], the IC50 came out at 4.1 nM.
